From publication PMC3973950, “Synthesis of 5-arylidine amino-1,3,4-thiadiazol-2-[(N-substituted benzyol)]sulphonamides endowed with potent antioxidants and anticancer activity induces growth inhibition in HEK293, BT474 and NCI-H226 cells” (Medicinal Chemistry Research, 2013)

Assays:
[1] = In vitro cytotoxicity by MTT assay, HEK 293; format: cell-based, human; details: human, HEK 293 cells, read-out: % cytotoxicity (100 − % cell survival) of HEK 293 cell line
In short: (§1)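 Monolayers seeded at […] (about 10,000 per well) were treated after 24 h with the synthesized compounds and incubated three days. Viability was taken from MTT reduction, with formazan measured at 490 nm.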

[2] = system: BT474 (breast cancer cell line); test: In vitro cytotoxicity by MTT assay, BT474; format: cell-based; details: Homo sapiens, 72 h, read-out: % cytotoxicity (100 − % cell survival) of BT474 cell line; for cytotoxicity at 0.005 µM: BT-474, 0.005 μM; for cytotoxicity at 0.015 µM: BT-474, 0.015 μM; for cytotoxicity at 0.045 µM: BT-474, 0.045 μM; for cytotoxicity at 0.13 µM: BT-474, 0.13 μM; for cytotoxicity at 0.41 µM: BT-474, 0.41 μM; for cytotoxicity at 1.23 µM: BT-474, 1.23 μM; for cytotoxicity at 3.7 µM: BT-474, 3.7 μM; for cytotoxicity at 11.11 µM: BT-474, 11.11 μM; for cytotoxicity at 33.33 µM: BT-474, 33.33 μM; for cytotoxicity at 100 µM: BT-474, 100 μM
In short: as §1

[3] = In vitro cytotoxicity by MTT assay, NCI-H226; format: cell-based; details: human, NCI-H226 lung cancer cells, 0.015 μM, read-out: % Cytotoxicity (100 − % cell survival) of NCI-H226 cell line
In short: as §1

[4] = system: NCI-H226 (lung cancer cell line); test: In vitro cytotoxicity by MTT assay, NCI-H226; format: cell-based; details: Homo sapiens, 72 h, read-out: % Cytotoxicity (100 − % cell survival) of NCI-H226 cell line; for cytotoxicity at 0.005 µM: NCI-H226, 0.005 μM; for cytotoxicity at 0.045 µM: NCI-H226, 0.045 μM; for cytotoxicity at 0.13 µM: NCI-H226, 0.13 μM; for cytotoxicity at 0.41 µM: NCI-H226, 0.41 μM; for cytotoxicity at 1.23 µM: NCI-H226, 1.23 μM; for cytotoxicity at 3.7 µM: NCI-H226, 3.7 μM; for cytotoxicity at 11.11 µM: NCI-H226, 11.11 μM; for cytotoxicity at 33.33 µM: NCI-H226, 33.33 μM; for cytotoxicity at 100 µM: NCI-H226, 100 μM
In short: as §1

| Structure (SMILES) | cytotoxicity at 72 h, 0.005 µM [1] | cytotoxicity at 72 h, 0.015 µM [1] | cytotoxicity at 72 h, 0.045 µM [1] | cytotoxicity at 72 h, 0.13 µM [1] | cytotoxicity at 72 h, 0.41 µM [1] | cytotoxicity at 72 h, 1.23 µM [1] | cytotoxicity at 72 h, 3.7 µM [1] | cytotoxicity at 72 h, 11.11 µM [1] | cytotoxicity at 72 h, 33.33 µM [1] | cytotoxicity at 72 h, 100 µM [1] | cytotoxicity at 0.005 µM [2] | cytotoxicity at 0.015 µM [2] | cytotoxicity at 0.045 µM [2] | cytotoxicity at 0.13 µM [2] | cytotoxicity at 0.41 µM [2] | cytotoxicity at 1.23 µM [2] | cytotoxicity at 3.7 µM [2] | cytotoxicity at 11.11 µM [2] | cytotoxicity at 33.33 µM [2] | cytotoxicity at 100 µM [2] | also measured |
| --- | --- | --- | --- | --- | --- | --- | --- | --- | --- | --- | --- | --- | --- | --- | --- | --- | --- | --- | --- | --- | --- |
| Nc1ccc(S(=O)(=O)Nc2nnc(S(=O)(=O)NC(=O)c3ccccc3O)s2)cc1 [Compound 7d] | 18.9% | 19.9% | 20.3% | 22.2% | 24.1% | 25.3% | 26.6% | 27.2% | 29% | 29.6% | 28.5% | 29.3% | 30.6% | 31.9% | 33.1% | 34.4% | 35.7% | 36.1% | 38% | 38.9% | cytotoxicity at 72 h, 0.015 µM [3]: 34.1%; cytotoxicity at 0.005 µM [4]: 33.7%; cytotoxicity at 0.045 µM [4]: 34.6%; cytotoxicity at 0.13 µM [4]: 35.2%; cytotoxicity at 0.41 µM [4]: 35.7%; cytotoxicity at 1.23 µM [4]: 35.4%; cytotoxicity at 3.7 µM [4]: 36%; cytotoxicity at 11.11 µM [4]: 37.9%; cytotoxicity at 33.33 µM [4]: 38.5%; cytotoxicity at 100 µM [4]: 38.9% |
| Nc1ccc(S(=O)(=O)Nc2nnc(S(=O)(=O)NC(=O)c3ccc([N+](=O)[O-])cc3)s2)cc1 [Compound 7e] | 26.9% | 29% | 30.2% | 32.1% | 34.7% | 35.5% | 36.4% | 38.1% | 38.8% | 39.8% | 43.9% | 44.2% | 45.4% | 46.3% | 47.1% | 47.6% | 48.5% | 49.1% | 50.4% | 51.2% | cytotoxicity at 72 h, 0.015 µM [3]: 30%; cytotoxicity at 0.005 µM [4]: 29%; cytotoxicity at 0.045 µM [4]: 30.5%; cytotoxicity at 0.13 µM [4]: 31.8%; cytotoxicity at 0.41 µM [4]: 33.5%; cytotoxicity at 1.23 µM [4]: 34.5%; cytotoxicity at 3.7 µM [4]: 34.9%; cytotoxicity at 11.11 µM [4]: 35.5%; cytotoxicity at 33.33 µM [4]: 35.8%; cytotoxicity at 100 µM [4]: 36% |
| Nc1ccc(S(=O)(=O)Nc2nnc(S(=O)(=O)NC(=O)c3ccc(Cl)cc3)s2)cc1 [Compound 7g] | 29.1% | 31.2% | 33.3% | 35.1% | 35.9% | 36.5% | 37.2% | 38.1% | 40.3% | 42.9% | 27.3% | 28.4% | 30% | 31.3% | 32.7% | 33.2% | 34.7% | 37.7% | 38.5% | 40.1% | cytotoxicity at 72 h, 0.015 µM [3]: 32.8%; cytotoxicity at 0.005 µM [4]: 30.7%; cytotoxicity at 0.045 µM [4]: 33.6%; cytotoxicity at 0.13 µM [4]: 35.3%; cytotoxicity at 0.41 µM [4]: 35.7%; cytotoxicity at 1.23 µM [4]: 36.1%; cytotoxicity at 3.7 µM [4]: 36.3%; cytotoxicity at 11.11 µM [4]: 37.1%; cytotoxicity at 33.33 µM [4]: 38.7%; cytotoxicity at 100 µM [4]: 39% |
| NS(=O)(=O)c1ccc(S(=O)(=O)Nc2cccc3c(Cl)c[nH]c23)cc1 [ISL, indisulam, reference compound] | 42.3% | 46.9% | 48.6% | 50.1% | 51.1% | 52.2% | 55.4% | 57.8% | 61.2% | 69.4% | 42.2% | 45% | 46.4% | 49% | 50.8% | 52.9% | 54.7% | 62.5% | 66.1% | 73.5% | cytotoxicity at 72 h, 0.015 µM [3]: 28.4%; cytotoxicity at 0.005 µM [4]: 26.4%; cytotoxicity at 0.045 µM [4]: 30.2%; cytotoxicity at 0.13 µM [4]: 31.1%; cytotoxicity at 0.41 µM [4]: 33%; cytotoxicity at 1.23 µM [4]: 34.1%; cytotoxicity at 3.7 µM [4]: 36.5%; cytotoxicity at 11.11 µM [4]: 38.6%; cytotoxicity at 33.33 µM [4]: 44.7%; cytotoxicity at 100 µM [4]: 59.3% |
